Test results published in ChEMBL document CHEMBL1201862, “PubChem BioAssay data set” (2004).
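Protocol summary: plate cells (96-well), add compound at 5 concentrations, incubate 48 h, interpolate endpoints linearly. Here, GI50 denotes the concentration required for 50% inhibition of growth.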 Activity calls are given as the source filed them. No stated cut-off is given here; in the data, active = GI50 up to about 1.1 µM and inactive = higher.

Tests used:
Experiment in all cases: inhibition of tumour cell growth, NCI panel, 48 h
[1] = test system: A549
[2] = test system: EKVX
[3] = test system: HCT-116
[4] = test system: M14
[5] = test system: MCF7
[6] = test system: MDA-MB-231
[7] = test system: MDA-N
[8] = test system: Malme-3M
[9] = test system: OVCAR-4
[10] = test system: OVCAR-8
[11] = test system: RPMI-8226
[12] = test system: SK-MEL-28
[13] = test system: SK-OV-3
[14] = test system: SNB-19
[15] = test system: SW-620
[16] = test system: UACC-257
[17] = test system: UACC-62
[18] = test system: UO-31
[19] = test system: SF-539
[20] = test system: NCI-H226

Measured: GI50

COc1ccc(OC)c(C2CCc3cnc4nc(N)nc(N)c4c3C2)c1 (stereo not drawn)
inactive: [1] 59.6 µM | [2] > 100 µM | [3] 46 µM | [4] 92.3 µM | [5] > 100 µM | [6] > 100 µM | [7] 55.5 µM | [8] > 100 µM | [9] > 100 µM | [10] 91.2 µM | [11] > 100 µM | [12] > 100 µM | [13] > 100 µM | [14] > 100 µM | [15] > 100 µM | [16] 61.9 µM | [17] 74 µM | [18] 37.4 µM

NC1=NCC(CN2CCCC2)O1 (stereo not drawn)
inactive: [1] > 100 µM | [2] > 100 µM | [3] > 100 µM | [4] > 100 µM | [5] > 100 µM | [6] > 100 µM | [7] > 100 µM | [8] > 100 µM | [9] > 100 µM | [10] > 100 µM | [11] > 100 µM | [19] > 100 µM | [12] > 100 µM | [13] > 100 µM | [14] > 100 µM | [15] > 100 µM | [16] > 100 µM | [17] > 100 µM | [18] > 100 µM

CC(=O)N(O)c1ccc(-c2nc3ccccc3s2)cc1
inactive: [1] 42.6 µM | [3] 68.5 µM | [4] 85.7 µM | [6] 49.7 µM | [7] 77.6 µM | [8] 31.3 µM | [20] 24.2 µM | [9] 28.2 µM | [10] 40.9 µM | [11] 15 µM | [12] 80.7 µM | [14] 60 µM | [15] > 100 µM | [16] > 100 µM | [17] > 100 µM | [18] 46 µM

CNC(=O)C(C)NC(=O)C(Cc1ccccc1)NC(=O)OC(C)(C)C (stereo not drawn)
inactive: [1] > 100 µM | [2] > 100 µM | [3] > 100 µM | [4] > 100 µM | [5] > 100 µM | [6] > 100 µM | [7] > 100 µM | [8] > 100 µM | [20] > 100 µM | [10] > 100 µM | [11] > 100 µM | [19] > 100 µM | [12] > 100 µM | [13] > 100 µM | [14] > 100 µM | [15] > 100 µM | [16] > 100 µM | [17] > 100 µM | [18] > 100 µM

CCc1nc2ccc(/N=N/N(C)C)cc2[nH]1
inactive: [1] > 100 µM | [2] > 100 µM | [3] > 100 µM | [4] > 100 µM | [6] > 100 µM | [7] > 100 µM | [8] > 100 µM | [20] > 100 µM | [9] > 100 µM | [10] > 100 µM | [11] > 100 µM | [12] > 100 µM | [14] > 100 µM | [15] > 100 µM | [16] > 100 µM | [17] > 100 µM | [18] > 100 µM

OC1CSc2nc3ccccc3n2C1 (stereo not drawn)
inactive: [1] > 100 µM | [2] > 100 µM | [3] > 100 µM | [4] > 100 µM | [5] > 100 µM | [6] > 100 µM | [7] > 100 µM | [8] > 100 µM | [20] > 100 µM | [10] > 100 µM | [11] > 100 µM | [19] > 100 µM | [13] > 100 µM | [14] > 100 µM | [15] > 100 µM | [16] > 100 µM | [17] > 100 µM | [18] > 100 µM

CN(N)/N=N/c1[nH]cnc1[N+](=O)[O-]
inactive: [1] > 100 µM | [2] 94.8 µM | [3] 34.8 µM | [4] > 100 µM | [6] 21.7 µM | [7] 51.2 µM | [8] > 100 µM | [20] > 100 µM | [9] 56.1 µM | [10] 28.4 µM | [11] 22 µM | [19] 46.6 µM | [12] > 100 µM | [13] > 100 µM | [15] 81.1 µM | [16] > 100 µM | [17] > 100 µM | [18] 61.1 µM

Cc1nn(C(=O)Cc2ccccc2)c2c1C(c1ccc(N(C)C)cc1)SC(=N)N2 (stereo not drawn)
inactive: [1] > 100 µM | [2] > 100 µM | [3] > 100 µM | [4] > 100 µM | [5] > 100 µM | [6] > 100 µM | [7] > 100 µM | [8] > 100 µM | [20] > 100 µM | [10] > 100 µM | [11] > 100 µM | [19] 46.1 µM | [12] > 100 µM | [13] > 100 µM | [14] > 100 µM | [15] > 100 µM | [16] > 100 µM | [17] 45.6 µM | [18] > 100 µM

CCCCN(CCCC)CC(O)c1cc(-c2ccc(Cl)c(Cl)c2)nc2c(Cl)cc(Cl)cc12 (stereo not drawn)
inactive: [2] 49.1 µM | [3] > 100 µM | [5] 6.84 µM | [6] 7.64 µM | [7] > 100 µM | [8] > 100 µM | [9] > 100 µM | [10] > 100 µM | [11] 37.1 µM | [19] > 100 µM | [12] > 100 µM | [13] > 100 µM | [14] > 100 µM | [15] 15.6 µM | [16] 86.1 µM | [17] > 100 µM | [18] 66.4 µM

COc1cc2c(cc1OC)C1CN3C(=O)CCC3C(O)C1c1cc(OC)c(OC)cc1-2 (stereo not drawn)
inactive: [1] > 100 µM | [2] > 100 µM | [3] > 100 µM | [4] > 100 µM | [5] > 100 µM | [6] > 100 µM | [7] > 100 µM | [8] > 100 µM | [9] > 100 µM | [10] > 100 µM | [11] > 100 µM | [12] > 100 µM | [13] > 100 µM | [14] > 100 µM | [15] > 100 µM | [16] > 100 µM | [17] > 100 µM | [18] > 100 µM

NC(c1ccccc1)(C(F)(F)F)P1(=O)OC(=O)c2ccccc2O1 (stereo not drawn)
inactive: [1] > 100 µM | [2] > 100 µM | [3] > 100 µM | [4] > 100 µM | [5] > 100 µM | [6] > 100 µM | [7] > 100 µM | [20] > 100 µM | [9] > 100 µM | [10] > 100 µM | [11] > 100 µM | [19] > 100 µM | [12] > 100 µM | [13] 26.9 µM | [14] > 100 µM | [15] > 100 µM | [16] > 100 µM | [17] > 100 µM | [18] > 100 µM
